“Also recorded” adds a separate entry of the source. A value given as a limit tells only on which side of the number the result lay.

The target of test [1] is T1, pVHL30 (long isoform of VHL) (Homo sapiens, UniProt P40337).
T1 construct: endogenous in cells; host or cells: HeLa
Briefly: Western blot of VHL levels in HeLa cells. The format is cell-based. The procedure: For single time point treatment experiments, cells were transferred in 6-well plates with 5×10^5 cells per well in 2 ml media in order to achieve 80% confluence the following day. Stock concentrations of compounds were prepared by solubilizing the powder in 100% v/v DMSO to the final desired stock concentration.
On the day of treatment, all compound samples were prepared as 100-fold concentrated compound solution using DMEM just before treatment. The experiment samples (20 μL) were added to the 6 well plate containing 2 ml of media. The final DMSO concentration was 0.1% v/v. Cells were incubated at 37° C. and 5% CO2 for the desired time before harvesting.
For time dependent treatment, cells were transferred in 6-well plates with 3×10^5 cells per well in 2 ml media. Samples were prepared as detailed above or the single time point experiments. Treatment was conducted at given time points prior to harvest.
Cells were transferred in 6-well plates with 5×10^5 cells per well in 2 ml media in order to achieve 80% confluence the day after. At t=0, MLN4924 was added into the desired wells at 3 μM final concentration and 0.1% v/v of DMSO. DMSO (0.1% v/v final conc.) was added to the remaining wells in order to match identical conc. of vehicle in all wells. At t=3 h, MG 132 was added into the desired wells at 50 μM final conc. and 0.1% v/v of DMSO. DMSO (0.1% v/v final conc.) was added to the remaining wells in order to achieve the same conc. of vehicle in all the wells. […] DMSO (0.1% v/v final conc.) was added to the remaining wells in order to obtain the same conc. of vehicle in all the wells. The total final concentration of DMSO was therefore 0.3% v/v. Plates were incubated for 4 h at 37° C. and 5% CO2 before harvesting.
Cells were transferred in 6-well plates with 5×10^5 cells per well in 2 ml media in order to achieve 80% confluence the day after. […] Plates were incubated for the desired time at 37° C. and 5% CO2 before harvesting.
For this experiments, cells were transferred in 6-well plates with 5×10^5 cells per well in 2 ml media in order to achieve 80% confluence the day after. […] Plates were incubated for the desired time at 37° C. and 5% CO2 before harvesting.
Cells were lysed in lysis buffer (20 mM Tris pH 8, 150 mM NaCl, 1% Triton x100) and a protease inhibitor cocktail (Roche) per 10 ml buffer. For protein extracts, the dishes were placed on ice. The media was aspirated and the tissue layer washed twice with ice-cold phosphate buffer saline (PBS). Lysis buffer (120 μl) was added and the cells detached from the surface with a cell scraper. After removal of the insoluble fraction by centrifugation, the protein concentration of the supernatant was determined by Pierce™ Coomassie (Bradford) Protein Assay Kit. Protein extracts were fractionated by SDS-PAGE on 4-12% Tris-Acetate NuPage® Novex® (Life Technologies) polyacrylamide gels and transferred to a nitrocellulose membrane using wet transfer. The membrane was then blocked with 5% w/v Bovine serum albumin (BSA) in Tris-buffered saline (TBS) with 0.1% w/v Tween-20. For detecting proteins the following primary antibodies in the given concentrations were used: anti-β-Actin (Cell Signaling Technology, 4970S, 13E5) 1:2000, anti-VHL (Cell Signaling Technology, #68547) 1:1000, anti-Hif-1α (BD Biosciences, 610959, clone 54) 1:1000, anti-hydroxy-HIF-1α (Hyp564) (Cell Signaling Techonology; #3434) 1:1000, anti-PHD2 (Bethyl Laboratories; A300-322A) 1:1000, anti-PHD3 (Bethyl Laboratories; A300-327A) 1:1000, anti-CRBN (Proteintech; 11435-1-AP) 1:1000.
Following incubation with a horseradish peroxidase-conjugated secondary antibody (Cell Signaling Technology), the signal was developed using enhanced chemiluminescence (ECL) Western Blotting Detection Kit (Amersham) on Amersham Hyperfilm ECL film (Amersham).
Band quantification was performed using ImageJ software and reported as relative amount as ratio of the each protein band relative to the lane's loading control. […]

Test [2] deals with HIF-dependent luciferase activity (HeLa-HRE and U2OS-HRE cells). Briefly: HRE-luciferase reporter assay. It counts as cell-based, Human. As to conditions: different concentrations and times. The procedure: It was performed essentially as described by Frost et al.^34 Briefly, cells (HeLa and U2OS) stably expressing an HRE-luciferase reporter were treated for the indicated times with compounds. Cells were harvested in passive lysis buffer (Promega) and subjected to three freeze-thaw cycles. The soluble lysate fraction was used for assays, performed according to the manufacturer's instructions (Promega) using a Berthold Lumat LB 9507 Luminometer. Results were normalized for protein concentration, and reported as mean±s.e.m. from three biological replicates.
(A reporter such as luciferase makes a cellular process visible.)

Test [3] concerns the target T2, VCB (biotinylated VCB and His-VCB) (Homo sapiens, UniProt P40337).
T2 construct: His tag (printed 'Hiss-VCB'); biotin (chemical labelling with NHS-PEG4-biotin); on the other VCB population
Briefly: AlphaLISA proximity assay of ternary complex formation. The format is binding. Conditions: VCB 20 nM each, 0.5 to 200 nM Homo-PROTAC. How it is done:
The VCB complex was mixed with EZ-link NHS-PEG4-biotin (Thermo Scientific) in a 1:1 molar ratio and incubated at room temperature for 1 h. The reaction was quenched using 1 M Tris-HCl, pH 7.5, and unreacted NHS-biotin was removed with a PD-10 MiniTrap desalting column (GE Healthcare) equilibrated with 20 mM HEPES, pH 7.5, 150 mM NaCl and 1 mM DTT.
All assays were performed at room temperature in 384-well plates with a final assay volume of 25 μL per well; plates were sealed with transparent film between addition of reagents. All reagents were prepared as 5× stocks diluted in 50 mM HEPES, pH 7.5, 100 mM NaCl, 0.1% (w/v) bovine serum albumin and 0.02% (w/v) 3-[(cholamidopropyl)dimethylammonio]-1-propanesulfonate (CHAPS). Biotinylated VCB (20 nM final) and Hiss-VCB (20 nM final) were incubated with a range of Homo-PROTAC concentrations (0.5 to 200 nM; three-in-five serial dilution) for 1 h. Anti-His acceptor beads (PerkinElmer, 10 μg/mL final) were added and plates were incubated for another hour. Streptavidin-coated donor beads (PerkinElmer, 10 μg/mL final) were added and plates were incubated for a final 1 h. Plates were read on a PHERAstar FS (BMG Labtech) using an optic module with an excitation wavelength of 680 nm and emission wavelength of 615 nm. Intensity values were plotted against PROTAC concentration on a logo scale.
A general note: Alpha assays give light when donor and acceptor beads are brought close together.

T1 sequence (P40337 whole entry, canonical isoform): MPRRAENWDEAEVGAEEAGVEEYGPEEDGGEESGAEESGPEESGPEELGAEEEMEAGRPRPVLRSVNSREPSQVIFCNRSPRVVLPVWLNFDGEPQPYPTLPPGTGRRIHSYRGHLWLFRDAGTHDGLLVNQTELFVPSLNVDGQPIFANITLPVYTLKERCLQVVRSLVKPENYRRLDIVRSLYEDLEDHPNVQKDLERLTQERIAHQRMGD
T2 sequence (P40337 54-213 limits assumed): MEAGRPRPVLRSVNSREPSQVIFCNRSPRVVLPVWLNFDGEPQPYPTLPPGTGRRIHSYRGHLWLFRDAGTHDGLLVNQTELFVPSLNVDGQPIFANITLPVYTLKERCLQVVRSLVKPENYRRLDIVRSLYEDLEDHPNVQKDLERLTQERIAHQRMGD
T2 sequence (Q15370 1-104 partner limits assumed): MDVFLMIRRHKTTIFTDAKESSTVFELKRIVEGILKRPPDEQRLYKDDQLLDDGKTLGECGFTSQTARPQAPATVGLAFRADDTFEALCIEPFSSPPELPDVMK
T2 sequence (Q15369 17-112 partner limits assumed): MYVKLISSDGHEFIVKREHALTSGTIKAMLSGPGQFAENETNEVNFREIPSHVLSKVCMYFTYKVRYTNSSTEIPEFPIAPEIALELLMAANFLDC

For the compound `Cc1ncsc1-c1ccc(CNC(=O)[C@@H]2C[C@@H](O)CN2C(=O)[C@@H](NC(=O)COCCOCCOCCOCCOCCOCC(=O)N[C@H](C(=O)N2C[C@H](O)C[C@H]2C(=O)NCc2ccc(-c3scnc3C)cc2)C(C)(C)C)C(C)(C)C)cc1` [CM11, N^1,N^20-bis((S)-1-((2S,4R)-4-hydroxy-2-((4-(4-methylthiazol-5-yl)benzyl)carbamoyl)pyrrolidin-1-yl)-3,3-dimethyl-1-oxobutan-2-yl)-3,6,9,12,15,18-hexaoxaicosanediamide], in test [1], the “effective degrading concentrations lower than inhibitory concentrations of VH032” value is on record as > 3 orders of magnitude and the “increase in cellular activity compared to parent inhibitor VH032” value is above 1000 fold. Also, in test [1] (1 μM, 10 h), the “depletion/degradation of VHL (pVHL30)” value is on record as “total knockdown; also recorded: complete depletion”. In test [1] (4 h), the “DC99, complete depletion of pVHL30” value is recorded as 10 nM. Also, the DC50 in test [1] (24 h, read-out: half-degrading concentration (DC50) of pVHL30) was around 0.1 µM. The “cellular activity with IOX4 pre-treatment” value in test [1] (IOX4 50 μM 30 min before CM11 1 μM, 4 h) was “did not impact the cellular activity”. For the same compound, the “degradation of pVHL30 with MG132 pre-treatment” value in test [1] (MG132 50 μM 30 min before CM11 1 μM, 4 h) was “completely abrogated”. Besides, in test [1] (MLN4924 3 μM before CM11 1 μM, 4 h), the “degradation of pVHL30 with MLN4924 pre-treatment” value was “prevented”. Moreover, in test [1] (VH032 150 μM 30 min before CM11 1 μM, 4 h), the “pVHL degradation with VH032 pre-treatment (competition)” value is “blocked pVHL degradation”. Also, in test [1] (time course, after 8 h), the “decrease of pVHL30 level” value is “essentially to completion”. In addition, the “HIF-dependent luciferase activity relative to DMSO” value in test [2] is given as “no increase in HIF-dependent luciferase activity was detected”. In addition, in test [3], the “AlphaLISA intensity signal / complex formation” value is reported as “highest intensity signal”.

The values above are taken from US11261179B2, “Small molecules” (University of Dundee, priority 2017, dated 2022).
